Where “and” joins values, the source holds several entries; their conditions need not be identical. Equal values may be shown once.
Key:
[1] = target: influenza B neuraminidase; assay type: biochemical, influenza B virus; details: read-out: IC50
[2] = target: A/H1N1pdm09 neuraminidase; assay type: biochemical, influenza A/H1N1pdm09 virus; details: read-out: IC50

| SMILES | IC50 [1] [nM] | IC50 [2] |
| --- | --- | --- |
| CCOC(=O)C1=C[C@@H](OC(CC)CC)[C@H](NC(C)=O)[C@@H](N)C1 [Oseltamivir, oseltamivir phosphate] | 14 |  |
| CCC(CC)[C@H](NC(C)=O)[C@@H]1[C@H](O)[C@@H](C(=O)O)C[C@H]1N=C(N)N [Peramivir, peramivir hydrate] |  | 0.45 nM and 0.65 nM and 0.26 nM |
